Laboratory results as given in patent publication US10155727B2, “Pyrazoles” (Janssen Pharmaceuticals, Inc., priority 2014, dated 2018).
Where a name gives a salt, the structure may show the parent alone. Read-outs that look alike come from different tables or passages of the source.

Key:
hERG receptor = hERG receptor (Homo sapiens (Human), UniProt Q12809); assay: HERGBD: inhibition of specific [3H]-Dofetilide binding to the hERG receptor
Procedure: Inhibition of Specific Binding to the hERG—Receptor (HERGBD)
A HEK cell line with stable transfected human ERG receptor was used for the assay. The cells were grown adherently and maintained in DULBECCOS' MEM medium with 10% FBS, 1% non-essential amino acids, 1% Penicillin/Streptomycin and 400 μg/ml G418 (Calbiochem).
For binding assays and membrane preparations the cell culture medium was removed, cells were washed with PBS. Crude membranes for radioligand binding experiments were prepared by scraping the cells off the dishes in ice cold 20 mM HEPES/0.1 mM KCl/pH 7.2. The cell suspension was homogenized on ice (Ultra turrax, 3×20 sec.) and the homogenate was spun for 10 min (1° C., 1000 g, OPTIMA, SW28, 2800 U/min). The supernatant was than centrifuged for 40 min at 100000 g (1° C., OPTIMA, SW28, 23000 U/min). The membrane pellet was re-suspended in 20 mM HEPES/0.1 mM KCl pH 7.2, frozen and stored at −80° C.
After thawing on the day of the assay, the membrane suspension was diluted further with 20 mM HEPES/0.1 mM KCl/pH 7.2.
The incubation mixture of 200 μl contained 1.5 nmol/l 3H-Dofetilide, optimized amount of membrane preparation, 20 mM HEPES/0.1 mM KCl/(pH 7.2) and inhibitor in 1% DMSO. Nonspecific binding was estimated in the presence of […] Dofetilide. The samples were incubated for 90 min. at RT.
Binding was terminated by filtration of the incubated membrane preparations using Filtermat B (Pharmacia, Uppsala Sweden) and a Micro Cell Harvester (Skatron, Lier, Norway). The Filtermat B had been presoaked with 1% polyethylen imine and carefully washed with 0.05 M Tris/HCl-buffer pH=7.7 after the filtration to separate free and bound radioactivity. The filters were counted in a scintillation counter (Betaplate 1205, Berthold, Wildbad, Germany) in order to determine the specific binding of [^3H]-Dofetilide.
The optimal amount of membrane preparation in the assay was determined and optimized for each membrane preparation separately in front of using the membranes in compound testing.
For pipetting of the incubation mixture we routinely use the robot Biomek2000 (Fa. Beckman).

[1] = molecular target: human NR1/NR2B ion channels (Homo sapiens (Human), UniProt Q05586+Q13224); assay: HNR2BC: calcium influx assay on cloned human NR1/NR2B ion channels expressed in HEK cells; assay type: cell-based; details: HEK cells with hNR1/NR2B, 100 μM glutamate + 100 μM glycine, 3 parameter plot
Sequence of human NR1/NR2B ion channels (Q13224 27-1484, other chains not shown): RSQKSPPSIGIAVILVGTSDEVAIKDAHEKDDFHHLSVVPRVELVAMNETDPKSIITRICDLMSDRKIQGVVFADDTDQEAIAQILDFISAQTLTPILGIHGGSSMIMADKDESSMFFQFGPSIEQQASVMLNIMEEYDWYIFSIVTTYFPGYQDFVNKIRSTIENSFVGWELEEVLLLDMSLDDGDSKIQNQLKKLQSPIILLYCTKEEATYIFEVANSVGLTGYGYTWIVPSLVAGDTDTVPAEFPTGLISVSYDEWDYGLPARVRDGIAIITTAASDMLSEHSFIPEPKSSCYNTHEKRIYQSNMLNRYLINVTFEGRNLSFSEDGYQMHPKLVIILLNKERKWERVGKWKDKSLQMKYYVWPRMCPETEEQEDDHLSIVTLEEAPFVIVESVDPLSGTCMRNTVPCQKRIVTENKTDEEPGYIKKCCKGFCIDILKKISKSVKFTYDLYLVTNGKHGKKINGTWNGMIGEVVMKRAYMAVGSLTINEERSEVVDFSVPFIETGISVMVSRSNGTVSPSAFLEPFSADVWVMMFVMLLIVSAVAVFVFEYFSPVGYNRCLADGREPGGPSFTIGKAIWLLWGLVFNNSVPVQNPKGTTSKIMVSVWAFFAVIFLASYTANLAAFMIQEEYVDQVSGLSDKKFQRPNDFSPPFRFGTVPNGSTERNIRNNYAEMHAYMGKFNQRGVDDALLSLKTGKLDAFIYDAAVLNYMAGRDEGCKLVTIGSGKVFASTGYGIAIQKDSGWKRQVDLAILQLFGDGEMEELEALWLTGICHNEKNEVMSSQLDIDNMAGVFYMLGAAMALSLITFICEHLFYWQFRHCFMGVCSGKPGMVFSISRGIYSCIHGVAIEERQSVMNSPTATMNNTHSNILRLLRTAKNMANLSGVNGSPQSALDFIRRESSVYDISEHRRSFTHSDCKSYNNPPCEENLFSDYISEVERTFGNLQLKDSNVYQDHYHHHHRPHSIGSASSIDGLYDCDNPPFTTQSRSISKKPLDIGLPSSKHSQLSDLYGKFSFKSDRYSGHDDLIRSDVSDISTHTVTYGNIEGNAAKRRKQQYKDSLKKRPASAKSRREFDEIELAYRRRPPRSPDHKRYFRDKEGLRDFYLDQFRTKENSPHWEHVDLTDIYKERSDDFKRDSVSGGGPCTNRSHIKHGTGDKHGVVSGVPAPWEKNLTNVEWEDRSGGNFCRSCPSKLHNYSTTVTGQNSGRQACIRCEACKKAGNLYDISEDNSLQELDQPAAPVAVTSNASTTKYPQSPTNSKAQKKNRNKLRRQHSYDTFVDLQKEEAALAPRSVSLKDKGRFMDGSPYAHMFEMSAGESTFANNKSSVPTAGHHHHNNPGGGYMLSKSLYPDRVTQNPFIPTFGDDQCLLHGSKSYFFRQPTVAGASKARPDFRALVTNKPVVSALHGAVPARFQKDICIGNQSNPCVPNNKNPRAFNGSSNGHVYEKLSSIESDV
Procedure: HNR2BC: Effects of Test Articles on Cloned Human NR1/NR2B Ion Channels Expressed in Mammalian Cells
The ability of test compounds to act as an antagonist of NR1/NR2B was evaluated with a calcium influx assay (Calcium 5 Assay Kit, Molecular Devices).
For the antagonist assessment, NR1/NR2B was activated with the positive control agonist (Mg^2+-free HBPS+100 μM glutamic acid+100 μM glycine).
A HEK cell line, stable transfected with hNR1/NR2B was used. This tetracycline inducible cell line is transfected with GRIN1 (GeneBank accession number NM_007327.2) and GRIN2B (GeneBank accession number NM_000834.3.). The cells were cultured in cell culture flasks with DMEM/F12 supplemented with 10% FCS, 1% PenStrep and a selection of additional antibiotics.
Forty-Eight (48) hours before the assay the cells were plated into 96-well black well, flat clear bottom microtiter plates at a density of 50000 cells/well. Twenty-Four (24) hours later the receptor expression was induced by the addition of 1 μg/ml tetracycline in the presence of 2 mM ketamine and 200 μM 7-CKA. After 24 h of receptor induction the plates were used for the assay.
The medium was removed and the cells were loaded with 200 μl loading buffer (Molecular Devices) in Mg2+-free HBPS containing 100 μM 7-CKA at 37° C. for one (1) hour.
The test compounds were then solubilized in 100% DMSO and diluted to yield eight (8) different concentrations in 100% DMSO. A 96 well drug plate was prepared by diluting with water and glycine/glutamate to a 5-fold of final test concentration. Fluorescence intensity of the cells in the plate was measured in a FlexStation using an excitation wavelength of 485 nm and an emission wavelength of 525 nm. Twenty (20) seconds after starting the recordings the compounds together with the agonists glycine (100 μM) and glutamate (100 μM) were added into the wells and the fluorescence measured for ninety (90) seconds in summary.
The IC50 values provided in the paragraph below were determined using a 3 parameter plot.

rat NR1/NR2B receptor = rat NR1/NR2B receptor (Rattus norvegicus (Rat), UniProt P35439+Q00960); assay: NR2B binding assay: inhibition of specific [3H]-Ifenprodil binding to the rat NR1/NR2B receptor; details: [3H]-Ifenprodil binding, rat brain membranes
Sequence of rat NR1/NR2B receptor (Q00960 27-1482, other chains not shown): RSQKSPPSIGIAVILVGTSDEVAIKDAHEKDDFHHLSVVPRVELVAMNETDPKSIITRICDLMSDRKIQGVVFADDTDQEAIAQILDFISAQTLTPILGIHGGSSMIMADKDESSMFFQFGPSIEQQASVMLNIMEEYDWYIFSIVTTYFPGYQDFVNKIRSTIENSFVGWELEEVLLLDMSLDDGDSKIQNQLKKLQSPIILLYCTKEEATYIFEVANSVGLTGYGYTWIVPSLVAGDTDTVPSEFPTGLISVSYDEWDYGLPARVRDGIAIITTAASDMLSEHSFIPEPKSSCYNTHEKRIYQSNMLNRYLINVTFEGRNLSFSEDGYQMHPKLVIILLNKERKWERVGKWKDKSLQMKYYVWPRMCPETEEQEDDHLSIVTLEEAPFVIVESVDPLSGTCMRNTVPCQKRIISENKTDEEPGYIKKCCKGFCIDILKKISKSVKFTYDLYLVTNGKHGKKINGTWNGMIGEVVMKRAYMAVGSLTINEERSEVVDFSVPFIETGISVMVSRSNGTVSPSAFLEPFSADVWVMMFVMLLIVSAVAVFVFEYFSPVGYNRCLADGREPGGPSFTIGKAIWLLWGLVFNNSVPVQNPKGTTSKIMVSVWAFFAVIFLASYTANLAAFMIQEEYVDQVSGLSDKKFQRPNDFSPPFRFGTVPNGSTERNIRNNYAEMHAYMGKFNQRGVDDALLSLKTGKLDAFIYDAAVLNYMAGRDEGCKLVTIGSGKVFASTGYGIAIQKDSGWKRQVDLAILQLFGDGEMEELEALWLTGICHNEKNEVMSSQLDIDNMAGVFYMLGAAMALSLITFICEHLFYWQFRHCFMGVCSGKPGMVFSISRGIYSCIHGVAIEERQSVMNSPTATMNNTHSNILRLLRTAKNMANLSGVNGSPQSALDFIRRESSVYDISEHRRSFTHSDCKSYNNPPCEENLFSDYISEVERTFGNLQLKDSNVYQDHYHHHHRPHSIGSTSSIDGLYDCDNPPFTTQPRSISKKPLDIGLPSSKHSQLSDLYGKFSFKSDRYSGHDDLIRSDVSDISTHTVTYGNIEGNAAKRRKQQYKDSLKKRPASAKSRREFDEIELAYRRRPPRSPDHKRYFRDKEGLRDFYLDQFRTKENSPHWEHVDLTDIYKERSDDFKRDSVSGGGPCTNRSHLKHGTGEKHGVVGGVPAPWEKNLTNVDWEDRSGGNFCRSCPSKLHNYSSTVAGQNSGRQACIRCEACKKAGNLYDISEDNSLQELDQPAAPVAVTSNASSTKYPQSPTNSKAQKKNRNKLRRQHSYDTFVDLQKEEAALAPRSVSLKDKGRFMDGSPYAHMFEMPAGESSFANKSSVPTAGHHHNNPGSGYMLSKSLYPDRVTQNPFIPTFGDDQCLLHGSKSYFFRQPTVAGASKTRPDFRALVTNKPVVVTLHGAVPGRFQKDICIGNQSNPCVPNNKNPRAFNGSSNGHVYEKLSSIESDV
Procedure: Biological Assays Inhibition of Specific Binding to the Rat NR1/NR2B Receptor
Male Wistar rats (180 to 200 g) were killed by suffocation in a CO2 chamber for two minutes. Whole brains without cerebellum were removed and dissected on ice, placed into closed vials and stored at −70° C.
Membrane fractions were prepared and tested using standard techniques. At the time of the assay, 1 g of the brains was placed into 25 ml of 50 mM Tris/10 mM EDTA buffer, pH 7.1, (25 vol. per g of original tissue) and homogenized for 30 sec at 20000 rpm with an Ultraturrax T25 (Jahnke & Kunkel, IKA-Labortechnik, Staufen, Germany).
The supernatant was discarded and the pellet was homogenized on ice for 30 sec at 20000 rpm with an Ultraturrax and again centrifuged at 48000 g for 30 minutes at 4° C. The resultant pellet was resuspended in 25 ml of 50 mM Tris/10 mM EDTA buffer, homogenized for 30 sec with an Ultraturrax, aliquoted, frozen at −70° C. and stored until use.
After thawing on the day of the assay, a 5 ml membrane aliquot was centrifuged at 48000 g for 30 min at 4° C. The pellet was resuspended in 5 ml of 5 mM Tris/1 mM EDTA buffer, pH 7.4, homogenized for 30 sec at 20000 rpm with an Ultraturrax and centrifuged at 48000 g for 30 min at 4° C. This was repeated twice. The final pellet was homogenized in 5 ml of 5 mM Tris/1 mM EDTA buffer at 4° C. with an Ultraturrax and used for the Ifenprodil-binding assay as described in the following.
Nonspecific binding was estimated in the presence of […] CP101.606. The samples were incubated for 60 min. at 4° C.
The incubation was terminated by filtration of the membrane preparations using Filtermat B (Pharmacia, Uppsala Sweden) and a Micro Cell Harvester (Skatron, Lier, Norway). The Filtermat B had been presoaked with 1% polyethylene imine and carefully washed with 50 mM Tris/HCl-buffer pH 7.7 after the filtration to separate free and bound radioactivity.
The optimal amount of membrane preparation in the assay was determined and optimized for each membrane preparation separately before the test.
For pipetting of the incubation mixture the robot Biomek2000 (Fa. Beckman) was used.
For determination of IC50 values the Hill-plot, 2-parameter-model was used.

[2] = [3H]-Dofetilide binding, membranes of HEK cells with human ERG receptor, read-out: IC50

Sequence of hERG receptor (Q12809 whole entry): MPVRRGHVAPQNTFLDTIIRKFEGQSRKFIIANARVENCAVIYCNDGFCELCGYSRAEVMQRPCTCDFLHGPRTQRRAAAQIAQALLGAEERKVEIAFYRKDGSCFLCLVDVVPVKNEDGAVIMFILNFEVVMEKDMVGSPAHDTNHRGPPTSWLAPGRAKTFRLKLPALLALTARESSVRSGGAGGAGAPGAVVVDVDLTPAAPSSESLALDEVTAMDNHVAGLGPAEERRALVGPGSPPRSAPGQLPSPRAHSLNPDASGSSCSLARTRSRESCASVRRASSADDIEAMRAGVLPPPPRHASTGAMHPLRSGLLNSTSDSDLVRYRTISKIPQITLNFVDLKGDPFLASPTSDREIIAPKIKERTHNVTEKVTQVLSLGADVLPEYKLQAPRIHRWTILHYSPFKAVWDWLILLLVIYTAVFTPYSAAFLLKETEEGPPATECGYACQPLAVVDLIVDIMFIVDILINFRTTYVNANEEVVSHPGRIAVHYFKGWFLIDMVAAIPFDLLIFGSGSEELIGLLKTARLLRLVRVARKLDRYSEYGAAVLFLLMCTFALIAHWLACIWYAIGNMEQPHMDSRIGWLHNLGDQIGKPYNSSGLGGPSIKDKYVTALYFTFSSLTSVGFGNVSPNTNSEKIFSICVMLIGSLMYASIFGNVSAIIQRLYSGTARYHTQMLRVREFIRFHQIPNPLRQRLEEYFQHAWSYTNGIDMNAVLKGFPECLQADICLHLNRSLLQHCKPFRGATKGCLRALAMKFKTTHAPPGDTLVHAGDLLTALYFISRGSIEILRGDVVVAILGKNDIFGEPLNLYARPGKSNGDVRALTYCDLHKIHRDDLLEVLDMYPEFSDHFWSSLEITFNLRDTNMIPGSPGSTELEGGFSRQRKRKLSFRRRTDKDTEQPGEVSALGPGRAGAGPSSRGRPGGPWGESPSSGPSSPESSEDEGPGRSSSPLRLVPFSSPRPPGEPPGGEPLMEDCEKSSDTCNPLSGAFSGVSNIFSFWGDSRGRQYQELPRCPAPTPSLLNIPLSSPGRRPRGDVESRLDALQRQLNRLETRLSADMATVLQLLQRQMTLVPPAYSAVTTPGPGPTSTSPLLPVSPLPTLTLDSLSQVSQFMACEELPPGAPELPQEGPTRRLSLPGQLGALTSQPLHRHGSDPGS

Row | Compound | IC50 (hERG receptor) | IC50 [1] | IC50 (rat NR1/NR2B receptor) | IC50 (hERG receptor; [2])
1 | Cc1n[nH]c(C)c1Cn1cc(-c2ccc(Cl)c(OC(F)F)c2)cn1 [Example 88, 4-[[4-(3-difluoromethoxy-4-chloro-phenyl)pyrazol-1-yl]methyl]-3,5-dimethyl-1H-pyrazole] | 43.2 µM | > 10000 nM | 152 nM | –
2 | CCc1c[nH]nc1Cn1cc(-c2ccc(F)c(C(F)F)c2)cn1 [Example 92, 3-[[4-[3-(difluoromethyl)-4-fluoro-phenyl]pyrazol-1-yl]methyl]-4-ethyl-1H-pyrazole] | – | 11900 nM | 71.2 nM | 27.4 µM
3 | CCc1c[nH]nc1Cn1cc(-c2ccc(F)c(OC(F)F)c2)cn1 [Example 91, 3-[[4-[3-(difluoromethoxy)-4-fluoro-phenyl]pyrazol-1-yl]methyl]-4-ethyl-1H-pyrazole Succinate] | 48.9 µM | 1250 nM | 43.8 nM | –
4 | FC(F)Oc1cc(-c2cnn(Cc3cc[nH]n3)c2)ccc1Cl [Example 6] | – | 230 nM | – | –
5 | FC(F)Oc1cc(-c2cnn(Cc3cn[nH]c3)c2)ccc1Cl [Example 7, 4-[4-Chloro-3-(difluoromethoxy)phenyl]-1-(1H-pyrazol-4-ylmethyl)pyrazole] | 52.6 µM | 350 nM | 8.23 nM | –
6 | Cn1ccc(Cn2cc(-c3ccc(Cl)cc3)cn2)n1 [Example 75, 3-[[4-(4-Chlorophenyl)pyrazol-1-yl]methyl]-1-methyl-pyrazole] | 131 µM | 33800 nM | 3040 nM | –
7 | FC(F)c1cc(-c2cnn(Cc3cc[nH]n3)c2)ccc1Cl [Example 26, 4-[4-Chloro-3-(difluoromethyl)phenyl]-1-(1H-pyrazol-3-ylmethyl)pyrazole] | – | 890 nM | – | –
8 | CCc1[nH]ncc1Cn1cc(-c2ccc(F)c(OC(F)F)c2)cn1 [Example 20, 4-[3-(difluoromethoxy)-4-fluoro-phenyl]-1-[(5-ethyl-1H-pyrazol-4-yl)methyl]pyrazole Tartrate] | – | 5970 nM | – | –
9 | Cc1cc(Cn2cc(-c3ccc(Cl)cc3)cn2)n(C)n1 [Example 74, 5-[[4-(4-Chlorophenyl)pyrazol-1-yl]methyl]-1,3-dimethyl-pyrazole] | > 100 µM | 51000 nM | 6060 nM | –
10 | CCc1[nH]ncc1Cn1cc(-c2ccc(Cl)c(OC(F)F)c2)cn1 [Example 17, 4-[4-Chloro-3-(difluoromethoxy)phenyl]-1-[(5-ethyl-1H-pyrazol-4-yl)methyl]pyrazole] | – | 3700 nM | – | –
11 | Cc1[nH]ncc1Cn1cc(-c2ccc(F)c(C(F)F)c2)cn1 [Example 42, 4-[3-(Difluoromethyl)-4-fluoro-phenyl]-1-[(5-methyl-1H-pyrazol-4-yl)methyl]pyrazole] | 71.6 µM | 2300 nM | 202 nM | –
12 | Cc1cc(Cn2cc(-c3ccc(F)c(C(F)F)c3)cn2)[nH]n1 [Example 39, 4-[3-(Difluoromethyl)-4-fluoro-phenyl]-1-[(3-methyl-1H-pyrazol-5-yl)methyl]pyrazole] | 90.2 µM | 2400 nM | 102 nM | –
13 | Cc1[nH]ncc1Cn1cc(-c2ccc(Cl)c(OC(F)F)c2)cn1 [Example 16, 4-[4-Chloro-3-(difluoromethoxy)phenyl]-1-[(5-methyl-1H-pyrazol-4-yl)methyl]pyrazole] | 64.7 µM | 2150 nM | 41.1 nM | –
14 | CC(F)(F)c1cc(-c2cnn(Cc3cc[nH]n3)c2)ccc1F [Example 44, 4-[3-(1,1-difluoroethyl)-4-fluoro-phenyl]-1-(1H-pyrazol-3-ylmethyl)pyrazole Succinate] | > 100 µM | 530 nM | 17.1 nM | –
15 | Fc1ccc(-c2cnn(Cc3cc[nH]n3)c2)cc1C(F)F [Example 35, 4-[3-(Difluoromethyl)-4-fluoro-phenyl]-1-(1H-pyrazol-3-ylmethyl)pyrazole] | 22.6 µM | 690 nM | 17.6 nM | –
16 | CCCc1cc(Cn2cc(-c3ccc(F)c(C(F)F)c3)cn2)n[nH]1 [Example 41, 3-[[4-[3-(Difluoromethyl)-4-fluoro-phenyl]pyrazol-1-yl]methyl]-5-propyl-1H-pyrazole] | 16 µM | 59700 nM | 114 nM | –
17 | CCn1cncc1Cn1cc(-c2ccc(Cl)c(C(F)F)c2)cn1 [Example 95, 4-(4-chloro-3-(difluoromethyl)phenyl)-1-((1-ethyl-1H-imidazol-5-yl)methyl)-1H-pyrazole] | – | – | 63.5 nM | 6.36 µM
18 | Cn1cc(Cn2cc(-c3ccc(Cl)c(OC(F)F)c3)cn2)cn1 [Example 4, 4-[4-Chloro-3-(difluoromethoxy)phenyl]-1-[(1-methylpyrazol-4-yl)methyl]pyrazole] | – | 1750 nM | – | –
19 | Cc1cc(Cn2cc(-c3ccc(Cl)c(OC(F)F)c3)cn2)n(C)n1 [Example 3, 5-[[4-[4-Chloro-3-(difluoromethoxy)phenyl]pyrazol-1-yl]methyl]-1,3-dimethyl-pyrazole] | – | – | 146 nM | 23.3 µM
20 | FC(F)Oc1cc(-c2cnn(Cc3ccn(C4CCCC4)n3)c2)ccc1Cl [Example 12, 3-[[4-[4-Chloro-3-(difluoromethoxy)phenyl]pyrazol-1-yl]methyl]-1-cyclopentyl-pyrazole] | 8.06 µM | – | 280 nM | –
21 | CCCc1cc(Cn2cc(-c3ccc(Cl)c(OC(F)F)c3)cn2)n[nH]1 [Example 15, 3-[[4-[4-Chloro-3-(difluoromethoxy)phenyl]pyrazol-1-yl]methyl]-5-propyl-1H-pyrazole] | – | – | 163 nM | 7.93 µM
